# Measured values: ChEMBL document CHEMBL1201862, “PubChem BioAssay data set” (2004)
#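 In this assay, cells in 96-well plates receive the compound at five concentrations for 48 hours. Endpoints are linearly interpolated between the surrounding concentrations. The concentration for 50% growth inhibition is given as GI50.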 Activity calls are given as the source filed them. Rule as the data show it: active = GI50 up to about 1.1 µM and inactive = higher.
# What was measured:
# Assay in all cases: NCI tumour cell line growth inhibition, 48 h
# MOLT-4 = test system: MOLT-4
# K562 = test system: K562
# SF-539 = test system: SF-539
# LXFL 529 = test system: LXFL 529
# RPMI-8226 = test system: RPMI-8226
# A498 = test system: A498
# PC-3 = test system: PC-3
# MDA-N = test system: MDA-N
# MDA-MB-435 = test system: MDA-MB-435
# OVCAR-3 = test system: OVCAR-3
# HOP-92 = test system: HOP-92
# SNB-75 = test system: SNB-75
# SNB-19 = test system: SNB-19
# SN12C = test system: SN12C
# DU-145 = test system: DU-145
# SR = test system: SR
# U-251 = test system: U-251
# CAKI-1 = test system: CAKI-1
# EKVX = test system: EKVX
# DMS-273 = test system: DMS-273
# NCI-H226 = test system: NCI-H226
# LOX IMVI = test system: LOX IMVI
# IGROV-1 = test system: IGROV-1
# Hs-578T = test system: Hs-578T
# TK-10 = test system: TK-10
# OVCAR-8 = test system: OVCAR-8
# XF498 = test system: XF498
# SF-268 = test system: SF-268
# BT-549 = test system: BT-549
# M19-MEL = test system: M19-MEL
# NCI/ADR-RES = test system: NCI/ADR-RES
# HT-29 = test system: HT-29
# CCRF-CEM = test system: CCRF-CEM
# OVCAR-4 = test system: OVCAR-4
# KM-20L2 = test system: KM-20L2
# T47D = test system: T47D
# NCI-H460 = test system: NCI-H460
# RXF 393 = test system: RXF 393
# DLD-1 = test system: DLD-1
# 786-0 = test system: 786-0
# HOP-62 = test system: HOP-62
# UACC-257 = test system: UACC-257
# HCT-116 = test system: HCT-116
# HCC 2998 = test system: HCC 2998
# DMS-114 = test system: DMS-114
# KM12 = test system: KM12
# SNB-78 = test system: SNB-78
# HL-60 = test system: HL-60
# UACC-62 = test system: UACC-62
# ACHN = test system: ACHN
# SW-620 = test system: SW-620
# Malme-3M = test system: Malme-3M
# MDA-MB-231 = test system: MDA-MB-231
# SK-MEL-28 = test system: SK-MEL-28
# MCF7 = test system: MCF7
# SK-MEL-5 = test system: SK-MEL-5
# HCT-15 = test system: HCT-15
# SK-OV-3 = test system: SK-OV-3
# UO-31 = test system: UO-31
# NCI-H522 = test system: NCI-H522
# COLO 205 = test system: COLO 205
# OVCAR-5 = test system: OVCAR-5
# A549 = test system: A549
# SF-295 = test system: SF-295
# NCI-H23 = test system: NCI-H23
# M14 = test system: M14
# SK-MEL-2 = test system: SK-MEL-2
smiles,measurement,setting,value
CC12C=CC(=O)C=C1CCC1C3CCC(O)(C(=O)CO)C3(C)CC(O)C12F (stereo unspecified),GI50,MOLT-4,> 100 µM (inactive)
same,GI50,K562,> 100 µM (inactive)
same,GI50,SF-539,> 100 µM (inactive)
same,GI50,LXFL 529,> 100 µM (inactive)
same,GI50,RPMI-8226,17.1 µM (inactive)
same,GI50,A498,> 100 µM (inactive)
same,GI50,PC-3,> 100 µM (inactive)
same,GI50,MDA-N,> 100 µM (inactive)
same,GI50,MDA-MB-435,> 100 µM (inactive)
same,GI50,OVCAR-3,> 100 µM (inactive)
same,GI50,HOP-92,> 100 µM (inactive)
same,GI50,SNB-75,> 100 µM (inactive)
same,GI50,SNB-19,> 100 µM (inactive)
same,GI50,SN12C,> 100 µM (inactive)
same,GI50,DU-145,> 100 µM (inactive)
same,GI50,SR,> 100 µM (inactive)
same,GI50,U-251,> 100 µM (inactive)
same,GI50,CAKI-1,> 100 µM (inactive)
same,GI50,EKVX,43.5 µM (inactive)
same,GI50,DMS-273,> 100 µM (inactive)
same,GI50,NCI-H226,> 100 µM (inactive)
same,GI50,LOX IMVI,> 100 µM (inactive)
same,GI50,IGROV-1,> 100 µM (inactive)
same,GI50,Hs-578T,> 100 µM (inactive)
same,GI50,TK-10,> 100 µM (inactive)
same,GI50,OVCAR-8,> 100 µM (inactive)
same,GI50,XF498,> 100 µM (inactive)
same,GI50,SF-268,> 100 µM (inactive)
same,GI50,BT-549,95.3 µM (inactive)
same,GI50,M19-MEL,> 100 µM (inactive)
same,GI50,NCI/ADR-RES,> 100 µM (inactive)
same,GI50,HT-29,> 100 µM (inactive)
same,GI50,CCRF-CEM,0.536 µM (active)
same,GI50,OVCAR-4,> 100 µM (inactive)
same,GI50,KM-20L2,> 100 µM (inactive)
same,GI50,T47D,> 100 µM (inactive)
same,GI50,NCI-H460,> 100 µM (inactive)
same,GI50,RXF 393,> 100 µM (inactive)
same,GI50,DLD-1,> 100 µM (inactive)
same,GI50,786-0,> 100 µM (inactive)
same,GI50,HOP-62,> 100 µM (inactive)
same,GI50,UACC-257,> 100 µM (inactive)
same,GI50,HCT-116,> 100 µM (inactive)
same,GI50,HCC 2998,> 100 µM (inactive)
same,GI50,DMS-114,> 100 µM (inactive)
same,GI50,KM12,> 100 µM (inactive)
same,GI50,SNB-78,> 100 µM (inactive)
same,GI50,HL-60,> 100 µM (inactive)
same,GI50,UACC-62,> 100 µM (inactive)
same,GI50,ACHN,> 100 µM (inactive)
same,GI50,SW-620,> 100 µM (inactive)
same,GI50,Malme-3M,> 100 µM (inactive)
same,GI50,MDA-MB-231,> 100 µM (inactive)
same,GI50,SK-MEL-28,> 100 µM (inactive)
same,GI50,MCF7,> 100 µM (inactive)
same,GI50,SK-MEL-5,> 100 µM (inactive)
same,GI50,HCT-15,> 100 µM
same,GI50,SK-OV-3,> 4.88 µM (inactive)
same,GI50,UO-31,> 100 µM (inactive)
same,GI50,NCI-H522,> 100 µM (inactive)
same,GI50,COLO 205,> 100 µM (inactive)
same,GI50,OVCAR-5,> 76.4 µM (inactive)
same,GI50,A549,> 100 µM (inactive)
same,GI50,SF-295,> 100 µM (inactive)
same,GI50,NCI-H23,> 100 µM (inactive)
same,GI50,M14,> 100 µM (inactive)
same,GI50,SK-MEL-2,> 100 µM (inactive)
NC(=S)N1N=C2CCCCCC[C@@H]2[C@H]1c1ccccc1,GI50,MOLT-4,31.8 µM (inactive)
same,GI50,K562,32.8 µM (inactive)
same,GI50,SF-539,> 100 µM (inactive)
same,GI50,LXFL 529,40 µM (inactive)
same,GI50,RPMI-8226,15.1 µM (inactive)
same,GI50,A498,75 µM (inactive)
same,GI50,OVCAR-3,39.3 µM (inactive)
same,GI50,SNB-75,75.2 µM (inactive)
same,GI50,SNB-19,63.1 µM (inactive)
same,GI50,SN12C,86.1 µM (inactive)
same,GI50,U-251,46 µM (inactive)
same,GI50,CAKI-1,> 100 µM (inactive)
same,GI50,EKVX,27.7 µM (inactive)
same,GI50,DMS-273,34.2 µM (inactive)
same,GI50,NCI-H226,18.6 µM (inactive)
same,GI50,LOX IMVI,32.8 µM (inactive)
same,GI50,IGROV-1,63.2 µM (inactive)
same,GI50,TK-10,63 µM (inactive)
same,GI50,OVCAR-8,44.5 µM (inactive)
same,GI50,XF498,23.9 µM (inactive)
same,GI50,SF-268,> 100 µM (inactive)
same,GI50,M19-MEL,38.5 µM (inactive)
same,GI50,HT-29,29.2 µM (inactive)
same,GI50,CCRF-CEM,31.3 µM (inactive)
same,GI50,KM-20L2,62.1 µM (inactive)
same,GI50,NCI-H460,35.2 µM (inactive)
same,GI50,RXF 393,95.9 µM (inactive)
same,GI50,DLD-1,56.2 µM (inactive)
same,GI50,786-0,67 µM (inactive)
same,GI50,HOP-62,> 100 µM (inactive)
same,GI50,UACC-257,36.6 µM (inactive)
same,GI50,HCT-116,43.1 µM (inactive)
same,GI50,HCC 2998,79.4 µM (inactive)
same,GI50,DMS-114,27.1 µM (inactive)
same,GI50,KM12,35.2 µM (inactive)
same,GI50,SNB-78,> 100 µM (inactive)
same,GI50,HL-60,19.2 µM (inactive)
same,GI50,UACC-62,44.1 µM (inactive)
same,GI50,ACHN,41.9 µM (inactive)
same,GI50,SW-620,28.6 µM (inactive)
same,GI50,Malme-3M,59.3 µM (inactive)
same,GI50,SK-MEL-28,89.7 µM (inactive)
same,GI50,SK-MEL-5,22.4 µM (inactive)
same,GI50,HCT-15,28.4 µM
same,GI50,SK-OV-3,> 100 µM (inactive)
same,GI50,UO-31,16.7 µM (inactive)
same,GI50,NCI-H522,21.2 µM (inactive)
same,GI50,COLO 205,46.7 µM (inactive)
same,GI50,OVCAR-5,> 100 µM (inactive)
same,GI50,A549,24.4 µM (inactive)
same,GI50,SF-295,35.3 µM (inactive)
same,GI50,NCI-H23,40.2 µM (inactive)
same,GI50,M14,74.5 µM (inactive)
same,GI50,SK-MEL-2,64.6 µM (inactive)
